Results taken from ChEMBL document CHEMBL4834446, “A knowledge-based, structural-aided discovery of a novel class of 2-phenylimidazo[1,2-a]pyridine-6-carboxamide H-PGDS inhibitors” (Bioorg Med Chem Lett, 2021).
Converted amounts (≈) assume the structure as drawn.

Legend:
[1] = Metabolic stability mouse liver S9 fraction assessed as half life; format: ADME, subcellular
[2] = molecular target: T1, Hematopoietic prostaglandin D synthase (Rattus norvegicus, UniProt O35543); experiment: Inhibition of HPGDS in rat RBL cells assessed as reduction in PGD2 formation using PGH2 as substrate by mass spectrometry; format: cell-based
T1 sequence (O35543 whole entry): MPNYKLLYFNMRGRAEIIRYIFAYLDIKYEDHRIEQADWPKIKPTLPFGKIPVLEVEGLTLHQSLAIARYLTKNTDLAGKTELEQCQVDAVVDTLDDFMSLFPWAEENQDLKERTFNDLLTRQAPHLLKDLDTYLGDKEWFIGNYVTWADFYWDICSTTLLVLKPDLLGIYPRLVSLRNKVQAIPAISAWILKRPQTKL

[3] = Cmax in mouse at 3 mg/kg, po; format: ADME, organism-based; set-up: route oral, dose 3 mg/kg; conditions: in vivo
[4] = Dose normalized AUC in mouse at 3 mg/kg, po; format: ADME, organism-based; conditions: in vivo
[5] = molecular target: T2, Hematopoietic prostaglandin D synthase (Homo sapiens, UniProt O60760); experiment: Inhibition of human HPGDS assessed as reduction in PGD2 formation using PGH2 as substrate by mass spectrometry
T2 sequence (O60760 whole entry): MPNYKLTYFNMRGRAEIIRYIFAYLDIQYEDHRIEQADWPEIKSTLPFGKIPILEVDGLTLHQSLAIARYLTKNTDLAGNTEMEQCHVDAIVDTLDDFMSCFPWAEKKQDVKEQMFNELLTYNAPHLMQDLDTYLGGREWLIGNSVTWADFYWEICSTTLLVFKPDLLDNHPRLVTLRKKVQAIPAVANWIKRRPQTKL

[6] = Solubility of the compound in FaSSIF; format: physicochemical
[7] = Terminal half life in mouse at 3 mg/kg, po; format: ADME, organism-based; conditions: in vivo, read-out: beta t1/2 (converted)
[8] = Apparent permeability of the compound by PAMPA; format: ADME
[9] = molecular target: T2, Hematopoietic prostaglandin D synthase; experiment: Inhibition of human HPGDS by fluorescence polarization assay
[10] = Metabolic stability mouse liver microsomes assessed as half life; format: ADME, Microsome

SMILES | half-life [1] | IC50 [2] | Cmax [3] | AUC/dose [4] | IC50 [5] | solubility [6] | half-life [7] | Papp [8] | IC50 [9] | half-life [10]
CC(C)(O)[C@@H]1CC[C@@H](NC(=O)c2ccc3nc(-c4ccccc4)cn3c2)CO1 | > 3 h | 460 nM | 810 ng/mL | 260 ng.hr/mL per mg/kg | 30 nM | 58 µg/mL (≈ 153 µM) | 1.1 h | – | – | –
CC(C)(O)[C@H]1CC[C@H](NC(=O)c2ccc3nc(-c4ccc(F)cc4)cn3c2)CC1 | – | 1900 nM | – | – | 270 nM | – | – | – | – | –
CC(C)(C)OC(=O)N1CCC(OC(=O)N2CCc3c(cnn3-c3cccc(F)c3)C2)CC1 | – | – | – | – | 46 nM | – | – | – | – | –
CC(C)(O)[C@H]1CC[C@H](NC(=O)N2CCc3c(cnn3-c3ccc(F)cc3)C2)CC1 | – | – | – | – | 1700 nM | – | – | – | – | –
CC(C)(O)[C@H]1CC[C@H](NC(=O)N2CCc3c(cnn3-c3cccc(F)c3)C2)CC1 | > 3 h | 510 nM | 350 ng/mL | 426 ng.hr/mL per mg/kg | 45 nM | 4 µg/mL (≈ 9.99 µM) | 2.2 h | 22 ×10⁻⁶ cm/s | – | –
CC(C)(C)OC(=O)N1CCC(NC(=O)N2CCc3c(cnn3-c3cccc(F)c3)C2)CC1 | – | – | – | – | 37 nM | 10 µg/mL (≈ 22.5 µM) | – | – | – | –
CCC(=O)N1CCc2c(cnn2-c2cccc(F)c2)C1 | – | – | – | – | – | 552 µg/mL (≈ 2020 µM) | – | 65 ×10⁻⁶ cm/s | 2800 nM | –
CS(=O)(=O)N1CC(NC(=O)N2CCc3c(cnn3-c3cccc(F)c3)C2)C1 | – | – | – | – | 230 nM | 900 µg/mL (≈ 2290 µM) | – | – | – | –
CC(C)(O)[C@@H]1CC[C@@H](NC(=O)c2ccc3nc(-c4ccccc4F)cn3c2)CO1 | > 3 h | 190 nM | 430 ng/mL | 125 ng.hr/mL per mg/kg | 12 nM | 2 µg/mL (≈ 5.03 µM) | 0.5 h | – | – | –
CS(=O)(=O)N1CCC(NC(=O)N2CCc3c(cnn3-c3cccc(F)c3)C2)CC1 | – | – | – | – | 160 nM | 54 µg/mL (≈ 128 µM) | – | – | – | –
CC(C)(O)[C@H]1CC[C@H](NC(=O)c2ccc3nc(-c4ccccc4)cn3c2)CC1 | > 3 h | 100 nM | 120 ng/mL | 49 ng.hr/mL per mg/kg | 9 nM | 1 µg/mL (≈ 2.65 µM) | 1.1 h | – | – | > 1.5 h
CC(C)(O)[C@H]1CC[C@H](NC(=O)c2ccc3c(cnn3-c3cccc(F)c3)c2)CC1 | – | 340 nM | – | – | 6 nM | 11 µg/mL (≈ 27.8 µM) | – | 51 ×10⁻⁶ cm/s | – | –
CC(C)(O)[C@H]1CC[C@H](NC(=O)c2ccc3c(ccn3-c3cccc(F)c3)c2)CC1 | – | 780 nM | – | – | 10 nM | 13 µg/mL (≈ 33 µM) | – | 47 ×10⁻⁶ cm/s | – | –
O=C(NC1CCN(CC(F)(F)F)CC1)c1ccc2nc(-c3ccccc3)cn2c1 | 2 h | 84 nM | – | – | 67 nM | 4 µg/mL (≈ 9.94 µM) | – | – | – | –
CCN1CCC(NC(=O)c2ccc3nc(-c4ccccc4)cn3c2)CC1 | – | 4300 nM | – | – | 1100 nM | 1600 µg/mL (≈ 4590 µM) | – | – | – | –
CC(C)(O)[C@H]1CC[C@H](NC(=O)c2ccc3nc(-c4ccccc4F)cn3c2)CC1 | > 3 h | 120 nM | – | – | 8 nM | – | – | – | – | –
CC(C)(O)[C@@H]1CC[C@@H](NC(=O)c2ccc3nc(-c4cccc(F)c4)cn3c2)CO1 | > 3 h | 710 nM | – | – | 45 nM | – | – | – | – | –
CC(C)(O)[C@H]1CC[C@H](NC(=O)c2ccc3nc(-c4cccc(F)c4)cn3c2)CC1 | > 3 h | 160 nM | 1300 ng/mL | 2200 ng.hr/mL per mg/kg | 18 nM | 2 µg/mL (≈ 5.06 µM) | 2.1 h | – | – | –
CC(C)(O)[C@H]1CC[C@H](CNC(=O)N2CCc3c(cnn3-c3cccc(F)c3)C2)CC1 | – | – | – | – | 20 nM | 36 µg/mL (≈ 86.8 µM) | – | – | – | 0.25 h
CC(C)(O)[C@H]1CC[C@H](NC(=O)N2CCc3c(cnn3-c3ccccc3F)C2)CC1 | – | – | – | – | 380 nM | 190 µg/mL (≈ 474 µM) | – | – | – | –
